The numbers were not newly measured in patent US20070196528A1, “Cosmetic composition based on caper flower bud extract” (GATTEFOSSE S.A.S., priority 2004, published 2007), which cites them from elsewhere.

In the series the test system is oedemas in rats. The conditions noted are these: Pharmazie 43 (1988); cited from earlier work.
For the molecule `CC(C)=CCC/C(C)=C/CC/C(C)=C/CC/C(C)=C/CC/C(C)=C\CC/C(C)=C\CC/C(C)=C\CC/C(C)=C\CC/C(C)=C\CC/C(C)=C\CC/C(C)=C\CC/C(C)=C\CC/C(C)=C\CO` [Cappaprenol-13], the Anti-inflammatory activity entry is on record as “providing this anti-inflammatory activity”.
For the molecule `CC(C)=CCC/C(C)=C/CC/C(C)=C/CC/C(C)=C/CC/C(C)=C/CC/C(C)=C/CC/C(C)=C/CC/C(C)=C/CC/C(C)=C/CC/C(C)=C/CC/C(C)=C/CC/C(C)=C/CC/C(C)=C/CC/C(C)=C/CO` [Cappaprenol-14], the Anti-inflammatory activity entry is recorded as “providing this anti-inflammatory activity”.
Take Cappaprenol-12: the Anti-inflammatory activity entry was “providing this anti-inflammatory activity”.
